Laboratory results as given in US10499642B2, “Isoxazoline-substituted benzamides and analogues as insecticides” (SYNGENTA PARTICIPATIONS AG, priority 2015, dated 2019).
Like-named read-outs stand apart in the source and are kept apart here.

Columns and labels:
Assay type in all cases: in vivo
Diabrotica Balteata = assay: Diabrotica balteata (corn root worm) maize sprout test; conditions: 96 h, read-out: effect in at least one of the two categories (mortality or growth inhibition)
Method: Diabrotica Balteata, (Corn Root Worm)
Maize sprouts, placed on an agar layer in 24-well microtiter plates were treated with aqueous test solutions prepared from 10′000 ppm DMSO stock solutions by spraying. After drying, the plates were infested with L2 larvae (6 to 10 per well). The samples were assessed for mortality and growth inhibition in comparison to untreated samples 4 days after infestation. The following compounds gave an effect of at least 80% in at least one of the two categories (mortality or growth inhibition) at an application rate of 200 ppm: […]

Myzus persicae = Myzus persicae (green peach aphid) sunflower leaf disc test; conditions: foliar, 144 h
Method: Myzus persicae (Green Peach Aphid):
Sunflower leaf discs were placed on agar in a 24-well microtiter plate and sprayed with test solutions at an application rate of 200 ppm. After drying, the leaf discs were infested with an aphid population of mixed ages. After an incubation period of 6 days after treatment, samples were checked for mortality. The following compounds gave at least 80% mortality of Myzus persicae: […]

Spodoptera littoralis = Spodoptera littoralis (Egyptian cotton leaf worm) cotton leaf disc test; conditions: foliar, 72 h, read-out: control (at least one of mortality, anti-feedant effect, and growth inhibition)
Method: Spodoptera littoralis (Egyptian Cotton Leaf Worm)
Cotton leaf discs were placed on agar in 24-well microtiter plates and sprayed with aqueous test solutions prepared from 10′000 ppm DMSO stock solutions. After drying the leaf discs were infested with five L1 larvae. The samples were assessed for mortality, anti-feedant effect, and growth inhibition in comparison to untreated samples 3 days after infestation. Control of Spodoptera littoralis by a test sample is when at least one of mortality, anti-feedant effect, and growth inhibition is higher than the untreated sample.

Tetranychus urticae = Tetranychus urticae (two-spotted spider mite) bean leaf disc test; conditions: foliar, 192 h
Method: Tetranychus urticae (Two-Spotted Spider Mite):
Bean leaf discs on agar in 24-well microtiter plates were sprayed with aqueous test solutions prepared from 10′000 ppm DMSO stock solutions. After drying the leaf discs were infested with a mite population of mixed ages. The samples were assessed for mortality on mixed population (mobile stages) 8 days after infestation.

Plutella xylostella = Plutella xylostella (diamond back moth) artificial diet test; conditions: 120 h, read-out: effect in at least one of the two categories (mortality or growth inhibition)
Method: Plutella xylostella (Diamond Back Moth):
24-well microtiter plates with artificial diet were treated with aqueous test solutions prepared from 10′000 ppm DMSO stock solutions by pipetting. After drying, the plates were infested with L2 larvae (10 to 15 per well). The samples were assessed for mortality and growth inhibition in comparison to untreated samples 5 days after infestation. The following compounds gave an effect of at least 80% in at least one of the two categories (mortality or growth inhibition) at an application rate of 200 ppm: […]

Thrips tabaci = Thrips tabaci (onion thrips) sunflower leaf disc test; conditions: foliar, 144 h
Method: Thrips tabaci (Onion Thrips):
Sunflower leaf discs were placed on agar in 24-well microtiter plates and sprayed with aqueous test solutions prepared from 10′000 ppm DMSO stock solutions. After drying the leaf discs were infested with a thrips population of mixed ages. The samples were assessed for mortality 6 days after infestation.

CCC1=NOC(NC(=O)c2ccc(C3=NO[C@@](c4cc(Cl)c(F)c(Cl)c4)(C(F)(F)F)C3)cc2C)C1 (stereo partly drawn) [Compound A026, 4-[(5S)-5-(3,5-dichloro-4-fluoro-phenyl)-5-(trifluoromethyl)-4H-isoxazol-3-yl]-N-(3-ethyl-4,5-dihydroisoxazol-5-yl)-2-methyl-benzamide]
≥ 80%: percent effect (mortality or growth inhibition) at 200 ppm (Diabrotica Balteata) | mortality at 200 ppm (Myzus persicae) | percent control (mortality, anti-feedant effect or growth inhibition) at 200 ppm (Spodoptera littoralis) | mortality at 200 ppm (Tetranychus urticae) | percent effect (mortality or growth inhibition) at 200 ppm (Plutella xylostella) | mortality at 200 ppm (Thrips tabaci)

CC1=NOC(NC(=O)c2ccc(C3=NO[C@@](c4cc(Cl)c(Cl)c(Cl)c4)(C(F)(F)F)C3)cc2C)C1 (stereo partly drawn) [Compound A027, 2-methyl-N-(3-methyl-4,5-dihydroisoxazol-5-yl)-4-[(5S)-5-(3,4,5-trichlorophenyl)-5-(trifluoromethyl)-4H-isoxazol-3-yl]benzamide]
≥ 80%: percent effect (mortality or growth inhibition) at 200 ppm (Diabrotica Balteata) | mortality at 200 ppm (Myzus persicae) | percent control (mortality, anti-feedant effect or growth inhibition) at 200 ppm (Spodoptera littoralis) | mortality at 200 ppm (Tetranychus urticae) | percent effect (mortality or growth inhibition) at 200 ppm (Plutella xylostella) | mortality at 200 ppm (Thrips tabaci)

CC1=NOC(N(C=O)C(=O)c2ccc(C3=NO[C@@](c4cc(Cl)c(Cl)c(Cl)c4)(C(F)(F)F)C3)cc2Cl)C1 (stereo partly drawn) [Compound A024, 2-chloro-N-formyl-N-(3-methyl-4,5-dihydroisoxazol-5-yl)-4-[(5S)-5-(3,4,5-trichlorophenyl)-5-(trifluoromethyl)-4H-isoxazol-3-yl]benzamide]
≥ 80%: percent effect (mortality or growth inhibition) at 200 ppm (Diabrotica Balteata) | mortality at 200 ppm (Myzus persicae) | percent control (mortality, anti-feedant effect or growth inhibition) at 200 ppm (Spodoptera littoralis) | mortality at 200 ppm (Tetranychus urticae) | percent effect (mortality or growth inhibition) at 200 ppm (Plutella xylostella) | mortality at 200 ppm (Thrips tabaci)

Cc1cc(C2=NO[C@@](c3cc(Cl)c(Cl)c(Cl)c3)(C(F)(F)F)C2)ccc1C(=O)NC1CC(Cl)=NO1 (stereo partly drawn) [Compound A013, N-(3-chloro-4,5-dihydroisoxazol-5-yl)-2-methyl-4-[(5S)-5-(3,4,5-trichlorophenyl)-5-(trifluoromethyl)-4H-isoxazol-3-yl]benzamide]
≥ 80%: percent effect (mortality or growth inhibition) at 200 ppm (Diabrotica Balteata) | mortality at 200 ppm (Myzus persicae) | percent control (mortality, anti-feedant effect or growth inhibition) at 200 ppm (Spodoptera littoralis) | mortality at 200 ppm (Tetranychus urticae) | percent effect (mortality or growth inhibition) at 200 ppm (Plutella xylostella) | mortality at 200 ppm (Thrips tabaci)

COC1=NOC(NC(=O)c2ccc(C3=NO[C@@](c4cc(Cl)c(Cl)c(Cl)c4)(C(F)(F)F)C3)cc2C)C1 (stereo partly shown) [Compound A041]
≥ 80%: percent effect (mortality or growth inhibition) at 200 ppm (Diabrotica Balteata) | mortality at 200 ppm (Myzus persicae) | percent control (mortality, anti-feedant effect or growth inhibition) at 200 ppm (Spodoptera littoralis) | mortality at 200 ppm (Tetranychus urticae) | percent effect (mortality or growth inhibition) at 200 ppm (Plutella xylostella) | mortality at 200 ppm (Thrips tabaci)

Cc1cc(C2=NO[C@@](c3cc(Cl)c(F)c(Cl)c3)(C(F)(F)F)C2)ccc1C(=O)NC1CC(N(C)C)=NO1 (stereo partly drawn) [Compound A105, 4-[(5S)-5-(3,5-dichloro-4-fluoro-phenyl)-5-(trifluoromethyl)-4H-isoxazol-3-yl]-N-[3-(dimethylamino)-4,5-dihydroisoxazol-5-yl]-2-methyl-benzamide]
≥ 80%: percent effect (mortality or growth inhibition) at 200 ppm (Diabrotica Balteata) | mortality at 200 ppm (Myzus persicae) | percent control (mortality, anti-feedant effect or growth inhibition) at 200 ppm (Spodoptera littoralis) | mortality at 200 ppm (Tetranychus urticae) | percent effect (mortality or growth inhibition) at 200 ppm (Plutella xylostella) | mortality at 200 ppm (Thrips tabaci)

Cc1cc(C2=NO[C@@](c3cc(Cl)c(F)c(Cl)c3)(C(F)(F)F)C2)ccc1C(=O)N(C(=O)OC(C)(C)C)C1CC=NO1 (stereo partly drawn) [Compound A086, tert-butyl N-[4-[(5S)-5-(3,5-dichloro-4-fluoro-phenyl)-5-(trifluoromethyl)-4H-isoxazol-3-yl]-2-methyl-benzoyl]-N-(4,5-dihydroisoxazol-5-yl)carbamate]
≥ 80%: percent effect (mortality or growth inhibition) at 200 ppm (Diabrotica Balteata) | mortality at 200 ppm (Myzus persicae) | percent control (mortality, anti-feedant effect or growth inhibition) at 200 ppm (Spodoptera littoralis) | mortality at 200 ppm (Tetranychus urticae) | percent effect (mortality or growth inhibition) at 200 ppm (Plutella xylostella) | mortality at 200 ppm (Thrips tabaci)

CC1=NOC(NC(=O)c2ccc(C3=NO[C@@](c4cc(Br)cc(C(F)(F)F)c4)(C(F)(F)F)C3)cc2C)C1 (stereo partly drawn) [Compound A029, 4-[(5S)-5-[3-bromo-5-(trifluoromethyl)phenyl]-5-(trifluoromethyl)-4H-isoxazol-3-yl]-2-methyl-N-(3-methyl-4,5-dihydroisoxazol-5-yl)benzamide]
≥ 80%: percent effect (mortality or growth inhibition) at 200 ppm (Diabrotica Balteata; application rate 200 ppm, maize sprouts, L2 larvae, 4 days after infestation) | mortality at 200 ppm (Myzus persicae; application rate 200 ppm, sunflower leaf discs, population of mixed ages, 6 days after treatment, read-out: mortality) | percent control (mortality, anti-feedant effect or growth inhibition) at 200 ppm (Spodoptera littoralis; application rate 200 ppm, cotton leaf discs, L1 larvae, 3 days after infestation) | mortality at 200 ppm (Tetranychus urticae; application rate 200 ppm, bean leaf discs, mixed population (mobile stages), 8 days after infestation, read-out: mortality) | percent effect (mortality or growth inhibition) at 200 ppm (Plutella xylostella; application rate 200 ppm, artificial diet, L2 larvae, 5 days after infestation) | mortality at 200 ppm (Thrips tabaci; application rate 200 ppm, sunflower leaf discs, population of mixed ages, 6 days after infestation, read-out: mortality)

CC1=NOC(NC(=O)c2ccc(C3=NO[C@@](c4cc(Cl)c(Cl)c(Cl)c4)(C(F)(F)F)C3)cc2Br)C1 (stereo partly drawn) [Compound A037, 2-bromo-N-(3-methyl-4,5-dihydroisoxazol-5-yl)-4-[(5S)-5-(3,4,5-trichlorophenyl)-5-(trifluoromethyl)-4H-isoxazol-3-yl]benzamide]
≥ 80%: percent effect (mortality or growth inhibition) at 200 ppm (Diabrotica Balteata) | mortality at 200 ppm (Myzus persicae) | percent control (mortality, anti-feedant effect or growth inhibition) at 200 ppm (Spodoptera littoralis) | mortality at 200 ppm (Tetranychus urticae) | percent effect (mortality or growth inhibition) at 200 ppm (Plutella xylostella) | mortality at 200 ppm (Thrips tabaci)

CCNC(=O)COC1=NOC(NC(=O)c2ccc(C3=NO[C@@](c4cc(Cl)c(Cl)c(Cl)c4)(C(F)(F)F)C3)cc2C)C1 (stereo partly drawn) [Compound A115, N-[3-[2-(ethylamino)-2-oxo-ethoxy]-4,5-dihydroisoxazol-5-yl]-2-methyl-4-[(5S)-5-(3,4,5-trichlorophenyl)-5-(trifluoromethyl)-4H-isoxazol-3-yl]benzamide]
≥ 80%: percent effect (mortality or growth inhibition) at 200 ppm (Diabrotica Balteata) | mortality at 200 ppm (Myzus persicae) | percent control (mortality, anti-feedant effect or growth inhibition) at 200 ppm (Spodoptera littoralis) | mortality at 200 ppm (Tetranychus urticae) | percent effect (mortality or growth inhibition) at 200 ppm (Plutella xylostella) | mortality at 200 ppm (Thrips tabaci)

CCOC1=NOC(NC(=O)c2ccc(C3=NO[C@@](c4cc(Cl)c(F)c(Cl)c4)(C(F)(F)F)C3)cc2C)C1 (stereo partly shown) [Compound A046]
≥ 80%: percent effect (mortality or growth inhibition) at 200 ppm (Diabrotica Balteata) | mortality at 200 ppm (Myzus persicae) | percent control (mortality, anti-feedant effect or growth inhibition) at 200 ppm (Spodoptera littoralis) | mortality at 200 ppm (Tetranychus urticae) | percent effect (mortality or growth inhibition) at 200 ppm (Plutella xylostella) | mortality at 200 ppm (Thrips tabaci)

CCSC1=NOC(NC(=O)c2ccc(C3=NO[C@@](c4cc(Cl)c(Cl)c(Cl)c4)(C(F)(F)F)C3)cc2C)C1 (stereo partly shown) [Compound A052]
≥ 80%: percent effect (mortality or growth inhibition) at 200 ppm (Diabrotica Balteata) | mortality at 200 ppm (Myzus persicae) | percent control (mortality, anti-feedant effect or growth inhibition) at 200 ppm (Spodoptera littoralis) | mortality at 200 ppm (Tetranychus urticae) | percent effect (mortality or growth inhibition) at 200 ppm (Plutella xylostella) | mortality at 200 ppm (Thrips tabaci)

Cc1cc(C2=NO[C@@](c3cc(Cl)c(Cl)c(Cl)c3)(C(F)(F)F)C2)ccc1C(=O)NC1CC(OCC(=O)N(C)C)=NO1 (stereo partly drawn) [Compound A114, N-[3-[2-(dimethylamino)-2-oxo-ethoxy]-4,5-dihydroisoxazol-5-yl]-2-methyl-4-[(5S)-5-(3,4,5-trichlorophenyl)-5-(trifluoromethyl)-4H-isoxazol-3-yl]benzamide]
≥ 80%: mortality at 200 ppm (Myzus persicae) | percent control (mortality, anti-feedant effect or growth inhibition) at 200 ppm (Spodoptera littoralis) | mortality at 200 ppm (Tetranychus urticae) | percent effect (mortality or growth inhibition) at 200 ppm (Plutella xylostella) | mortality at 200 ppm (Thrips tabaci)

Cc1cc(C2=NO[C@@](c3cc(Cl)c(Cl)c(Cl)c3)(C(F)(F)F)C2)ccc1C(=O)NC1CC(OS(C)(=O)=O)=NO1 (stereo partly drawn) [Compound A135, [5-[[2-methyl-4-[(5S)-5-(3,4,5-trichlorophenyl)-5-(trifluoromethyl)-4H-isoxazol-3-yl]benzoyl]amino]-4,5-dihydroisoxazol-3-yl] methanesulfonate]
≥ 80%: percent effect (mortality or growth inhibition) at 200 ppm (Diabrotica Balteata) | percent control (mortality, anti-feedant effect or growth inhibition) at 200 ppm (Spodoptera littoralis) | mortality at 200 ppm (Tetranychus urticae) | percent effect (mortality or growth inhibition) at 200 ppm (Plutella xylostella) | mortality at 200 ppm (Thrips tabaci)
